Experimental data taken from patent publication US9920059B2, “Heterocyclic compounds as pesticides” (BAYER CROPSCIENCE AKTIENGESELLSCHAFT, priority 2014, dated 2018).
Like-named read-outs stand apart in the source and are kept apart here.

Legend:
[1] = log P by HPLC on reversed-phase C18 columns, OECD Guideline 117; format: physicochemical; conditions: for chromatographic logP: reversed-phase C18 HPLC column; for logP [a]: pH 2.7; for logP [b]: pH 7.8
Procedure: The log P values were determined in accordance with OECD Guideline 117 (EC Directive 92/69/EEC) by HPLC (high-performance liquid chromatography) using reversed-phase (RP) columns (C18), by the following methods: [a] The LC-MS determination in the acidic range is effected at pH 2.7 with 0.1% aqueous formic acid and acetonitrile (contains 0.1% formic acid) as eluents; linear gradient from 10% acetonitrile to 95% acetonitrile. [b] LC-MS determination in the neutral range is effected at pH 7.8 with 0.001 molar aqueous ammonium hydrogencarbonate solution and acetonitrile as eluents; linear gradient from 10% acetonitrile to 95% acetonitrile. Calibration is effected with unbranched alkan-2-ones (having 3 to 16 carbon atoms) with known log P values (log P values determined on the basis of the retention times by linear interpolation between two successive alkanones).

[2] = test system: green peach aphid (Myzus persicae); test: Myzus persicae spray test (MYZUPE), bell pepper plants; format: in vivo; conditions: after 6 days
Procedure: Myzus Persicae—Spray Test (MYZUPE) • Solvent: 7 parts by weight of dimethylformamide • Emulsifier: alkylaryl polyglycol ether To produce an appropriate active ingredient preparation, 1 part by weight of active ingredient is dissolved using the specified parts by weight of solvent and made up with water containing an emulsifier concentration of 1000 ppm until the desired concentration is attained. To produce further test concentrations, the preparation is diluted with emulsifier-containing water. If the addition of ammonium salts or/and penetrants is required, these are each added in a concentration of 1000 ppm to the preparation solution. Bell pepper plants (Capsicum annuum) severely infested with the green peach aphid (Myzus persicae) are treated by spraying with the active ingredient preparation in the desired concentration. After 6 days, the kill in % is determined. 100% means that all the aphids have been killed; 0% means that no aphids have been killed.

[3] = test system: green peach aphid (Myzus persicae); test: Myzus persicae spray test (MYZUPE), Chinese cabbage leaf discs; format: in vivo; conditions: after 6 days
Procedure: Myzus persicae—Spray Test (MYZUPE)
• Solvent: 78 parts by weight of acetone • 1.5 parts by weight of dimethylformamide • Emulsifier: alkylaryl polyglycol ether
(§1) To produce an appropriate active ingredient preparation, 1 part by weight of active ingredient is dissolved using the specified parts by weight of solvent and made up with water containing an emulsifier concentration of 1000 ppm until the desired concentration is attained. To produce further test concentrations, the preparation is diluted with emulsifier-containing water.
Discs of Chinese cabbage leaves (Brassica pekinensis) infested with all stages of the green peach aphid (Myzus persicae) are sprayed with an active ingredient preparation of the desired concentration.
After 6 days, the efficacy in % is determined. 100% means that all the aphids have been killed; 0% means that none of the aphids have been killed.

[4] = test system: adult houseflies (Musca domestica); test: Musca domestica test (MUSCDO); format: in vivo; conditions: application rate 100 ppm, after 2 days
Procedure: Musca domestica Test (MUSCDO) • Solvent: dimethyl sulphoxide To prepare an appropriate active ingredient preparation, 10 mg of active ingredient are mixed with 0.5 ml of dimethyl sulphoxide, and the concentrate is diluted with water to the desired concentration. Vessels containing a sponge treated with sugar solution and the active ingredient preparation of the desired concentration are populated with 10 adult houseflies (Musca domestica). After 2 days, the kill in % is determined. 100% means that all of the flies have been killed; 0% means that none of the flies have been killed.

[5] = test system: greenhouse red spider mite (Tetranychus urticae); test: Tetranychus urticae spray test, OP-resistant (TETRUR), bean leaf discs; format: in vivo; conditions: application rate 500 g/ha, after 6 days
Procedure: Tetranychus urticae—Spray Test, OP-Resistant (TETRUR)
• Solvent: 78.0 parts by weight of acetone • 1.5 parts by weight of dimethylformamide • Emulsifier: alkylaryl polyglycol ether
as §1
Discs of bean leaves (Phaseolus vulgaris) infested with all stages of the greenhouse red spider mite (Tetranychus urticae) are sprayed with an active compound preparation of the desired concentration.
After 6 days, the efficacy in % is determined. 100% means that all the spider mites have been killed; 0% means that none of the spider mites have been killed.

[6] = acidic range, pH 2.7, 0.1% aqueous formic acid/acetonitrile, read-out: log P[a]
[7] = neutral range, pH 7.8, ammonium hydrogencarbonate/acetonitrile, read-out: log P[b]
[8] = acidic range, NMR peak list table
[9] = neutral range, NMR peak list table

SMILES | efficacy in % ([3]; application rate 500 g/ha) [%] | logP [a] [1, 8] | logP [b] [1, 9] | also measured
Cc1cc(F)c(-n2cnc3nn(-c4cccnc4)cc3c2=O)cc1SCC(F)(F)F [I-1-1, 5-{2-Fluoro-4-methyl-5-[(2,2,2-trifluoroethyl)sulphanyl]phenyl}-2-(pyridin-3-yl)-2,5-dihydro-4H-pyrazolo[3,4-d]pyrimidin-4-one] | – | – | – | chromatographic logP [1, 6]: 2.65; chromatographic logP [1, 7]: 2.63; efficacy (kill in %) ([2]; application rate 20 ppm): 100%
Cc1cc(F)c(-n2nnc3nn(-c4cccnc4)cc3c2=O)cc1[S+]([O-])CC(F)(F)F (stereo not drawn) [I-1-2, 3-[2-Fluoro-4-methyl-5-(2,2,2-trifluoroethylsulphinyl)phenyl]-6-(3-pyridyl)pyrazolo[3,4-d]triazin-4-one] | 100 | – | – | chromatographic logP [1, 6]: 2.22; chromatographic logP [1, 7]: 2.19; efficacy (kill in %) [4]: 80%
Cc1cc(F)c(-n2nnc3nn(-c4cccnc4)cc3c2=O)cc1SCC(F)(F)F [I-1-3, 3-[2-fluoro-4-methyl-5-(2,2,2-trifluoroethylsulphanyl)phenyl]-6-(3-pyridyl)pyrazolo[3,4-d]triazin-4-one] | 100 | – | – | chromatographic logP [1, 6]: 3.18; chromatographic logP [1, 7]: 3.14; efficacy (kill in %) [4]: 80%
Cc1cc(F)c(-n2cnc3nn(-c4cccnc4)cc3c2=O)cc1[S+]([O-])CC(F)(F)F (stereo not drawn) [I-1-4, 5-{2-Fluoro-4-methyl-5-[(2,2,2-trifluoroethyl)sulphinyl]phenyl}-2-(pyridin-3-yl)-2,5-dihydro-4H-pyrazolo[3,4-d]pyrimidin-4-one] | 100 | – | – | chromatographic logP [1, 6]: 1.79; chromatographic logP [1, 7]: 1.78; efficacy in % [5]: 100%
Cc1cc(F)c(-n2cnc3nn(-c4ccc[n+]([O-])c4)cc3c2=O)cc1[S+]([O-])CC(F)(F)F (stereo not drawn) [I-1-5, 5-{2-Fluoro-4-methyl-5-[(2,2,2-trifluoroethyl)sulphinyl]phenyl}-2-(1-oxidopyridin-1-ium-3-yl)pyrazolo[3,4-d]pyrimidin-4-one] | 100 | – | – | chromatographic logP [1, 6]: 1.39; chromatographic logP [1, 7]: 1.33
CSc1cccc(-n2cnc3nn(-c4cccnc4)cc3c2=O)c1 [I-1-6] | 90 | – | – | logP [a] ([1]; acidic range, Table 2): 1.82; logP [b] ([1]; neutral range, Table 2): 1.78
Cc1ccc(-n2cnc3nn(-c4cccnc4)cc3c2=O)cc1SCC(F)(F)F [I-1-7] | 90 | – | – | logP [a] ([1]; acidic range, Table 2): 2.51; logP [b] ([1]; neutral range, Table 2): 2.56
Cc1ccc(-n2cnc3nn(-c4cccnc4)cc3c2=O)cc1[S+]([O-])CC(F)(F)F (stereo not drawn) [I-1-8] | 90 | – | – | logP [a] ([1]; acidic range, Table 2): 1.65; logP [b] ([1]; neutral range, Table 2): 1.67
O=c1c2cn(-c3cccnc3)nc2ncn1-c1cc(SCC(F)(F)F)ccc1F [I-1-9] | – | – | – | efficacy in % ([3]; application rate 100 g/ha): 90%; logP [a] ([1]; acidic range, Table 2): 2.32; logP [b] ([1]; neutral range, Table 2): 2.35
O=c1c2cn(-c3cccnc3)nc2ncn1-c1cc([S+]([O-])CC(F)(F)F)ccc1F (stereo not drawn) [I-1-10] | 100 | – | – | logP [a] ([1]; acidic range, Table 2): 1.53; logP [b] ([1]; neutral range, Table 2): 1.55
O=c1c2cn(-c3cccnc3)nc2ncn1-c1cccc(SCC2CC2)c1 [I-1-11] | 100 | 2.50 | 2.41 | –
O=c1c2cn(-c3cccnc3)nc2ncn1-c1cccc(SCC(F)(F)F)c1 [I-1-12] | 90 | 2.25 | 2.18 | –
O=c1c2cn(-c3cccnc3)nc2ncn1-c1cc(SCC(F)(F)F)c(Cl)cc1F [I-1-13] | – | 2.70 | 2.65 | efficacy (kill in %) ([2]; application rate 4 ppm): 100%
O=c1c2cn(-c3cccnc3)nc2ncn1-c1cc(SCC(F)(F)F)c(Cl)cc1Cl [I-1-14] | 90 | 2.91 | 2.83 | –
O=c1c2cn(-c3ccc[n+]([O-])c3)nc2ncn1-c1cc([S+]([O-])CC(F)(F)F)c(Cl)cc1Cl (stereo not drawn) [I-1-15] | 90 | 1.66 | 1.67 | –
O=c1c2cn(-c3cccnc3)nc2ncn1-c1cccc([S+]([O-])CC(F)(F)F)c1 (stereo not drawn) [I-1-16] | 90 | 1.46 | 1.41 | –
Cc1cc(C)c(-n2cnc3nn(-c4cccnc4)cc3c2=O)cc1SCC(F)(F)F [I-1-17] | 90 | 2.75 | 2.72 | –
O=c1c2cn(-c3cccnc3)nc2ncn1-c1cc([S+]([O-])CC(F)(F)F)c(Cl)cc1F (stereo not drawn) [I-1-18] | 90 | 2.02 | 1.94 | –
O=c1c2cn(-c3cccnc3)nc2ncn1-c1cc([S+]([O-])CC(F)(F)F)c(Cl)cc1Cl (stereo not drawn) [I-1-19] | 90 | 2.17 | 2.09 | –
Cc1cc(C)c([S+]([O-])CC(F)(F)F)cc1-n1cnc2nn(-c3cccnc3)cc2c1=O (stereo not drawn) [I-1-20] | – | 1.84 | 1.79 | efficacy in % ([3]; application rate 20 g/ha): 90%; efficacy in % [5]: 90%
O=c1c2cn(-c3cccnc3)nc2ncn1-c1cccc([S+]([O-])CC2CC2)c1 (stereo not drawn) [I-1-21] | 90 | 1.27 | 1.32 | –
Cc1cc(F)c(-n2c(C)nc3nn(-c4cccnc4)cc3c2=O)cc1SCC(F)(F)F [I-1-22] | 90 | 2.74 | 2.69 | –
CSc1ccccc1-n1cnc2nn(-c3cccnc3)cc2c1=O [I-2-23] | 90 | 1.65 | 1.67 | –
Cc1cc(F)c(NC(=O)c2cn(-c3cccnc3)nc2N)cc1SCC(F)(F)F [II-1, 3-Amino-N-{2-fluoro-4-methyl-5-[(2,2,2-trifluoroethyl)sulphanyl]phenyl}-1-(pyridin-3-yl)-1H-pyrazole-4-carboxamide] | – | – | – | chromatographic logP [1, 6]: 2.72; chromatographic logP [1, 7]: 2.63
